The text below walks through data of PMC3331894 (Journal of Immunology (Baltimore, Md. : 1950), 2012).

Test [1] relates to CD4 T cells. The conditions noted are these: immunodominant or cryptic epitope presented by I-A^d; cited from earlier work.
The test system of test [2] is CD4 T cells. The format is cell-based, HLA-DR1 transgenic mice. The conditions noted are these: average of at least 3 independent assays.
Test [3] concerns the target purified soluble DR1 molecules (Homo sapiens, UniProt P01903+P01911, A100R/D57E/F55L/F60I/F76Y/I96L/L162R/M171V/P40L/Q125E/R42F/V115G/Y59C). Type of test: binding.

As to AMKRHGLDNYRGYSL [HEL[11–25]], the “Immune Response” value in the test with CD4 T cells [1] is given as “Cryptic”.
For the sequence ELLVLLENERTLDFHD [HA-440], the “Cytokine Spots (number of CD4 T cell recruited per million)” value with CD4 T cells [2] is on record as 146 spots per million CD4 T cells. Besides, in test [3], the “dissociation half-time (t1/2) of DR1:peptide complexes” value (from here on “dissociation half-time”) was 14.6 days and the “t1/2 (h) pH 5.3, dissociation of DR1:peptide complexes” value (shortened to “t1/2 (h) pH 5.3, dissociation”) was determined as 350 h.
For HNTNGVTAACSHE [HA[126–138]], the “Immune Response” value with CD4 T cells [1] is “Cryptic”.
Take HNVNGVTAACSHE [HA[126–138]T128V]: the “Immune Response” value in the test on CD4 T cells [1] is given as “Dominant”.
For the sequence KRNLLWLTGKNGL [HA-162], in the test with CD4 T cells [2], the “Cytokine Spots (number of CD4 T cell recruited per million)” value was 163 spots per million CD4 T cells. Moreover, in test [3], the “dissociation half-time” value came to 3.54 days and the “t1/2 (h) pH 5.3, dissociation” value is 85 h.
As for MEERKIKVYLPRMKME [OVA[273–288]], the “Immune Response” value in the test with CD4 T cells [1] is on record as “Dominant”.
Take SGYAADQKSTQNAINGI [HA-375]: in test [3], the “dissociation half-time” value was 25 days and the “t1/2 (h) pH 5.3, dissociation” value was 600 h.
